Data: patent publication US20260274833A1 (NiKang Therapeutics, Inc., priority 2022, published 2026)

Molecular target: T1, CDK2 (Homo sapiens, UniProt P24941)
T1 construct: endogenous in cells; host or cells: OVCAR3 cells
Experiment: Phospho-RB measurement in OVCAR3 cells (HTRF phospho-RB cellular kit)
Type: cell-based
Details: inhibition of RB phosphorylation at S807/811 (HTRF, TR-FRET ratio 665/620), 24 h compound treatment, 0.3 to 10,000 nM
Method: Biological Example 1: Phospho-RB Measurement in OVCAR3 Cells
The ability of compounds of Formula (I) to inhibit CDK2 was determined in OVCAR3 cells by measuring inhibition of phosphorylation of RB protein at S780 and S807/811. Phosphorylation of RB protein at S807/811 were measured using HTRF phospho-RB cellular kits (Cat #64RBS807PEG) from Cisbio.
On Day 1, OVCAR3 cells were seeded into 96-well tissue-culture treated plates at 20,000 cells/well in 200 μL and incubated overnight at 37° C. in CO2 atmosphere. On Day 2, the cells were treated with test compounds at concentrations from 0.3 to 10,000 nM using HP D300 digital dispenser. Twenty-four hours after compound treatment, cell culture media was removed by flicking the plate and tapping the plate against clean paper towel. Immediately 30 μL 1× lysis buffer was supplemented from the kit and the plate was incubated at room temperature on shaker for 30 min. After homogenization by pipetting up and down, 8 μL cell lysate from 96-well cell culture plate was transferred to 384-well small volume white detection plate. 2 μL premixed detection solution was added and the plate was covered with sealer. To prepare the detection solution, d2 conjugated-phospho-RB antibody and Eu-cryptate conjugated phosphor-RB antibody were diluted into detection buffer following manufacturer's instruction.
Detection plates were incubated for 4 h at room temperature and read on ClarioStar (BMG Labtech) in TR-FRET mode ([…]). The TR-FRET ratio (665 nM/620 nM) was plotted against the compound concentration and normalized to DMSO controls. Half maximal inhibition concentration (IC50) values are calculated with a four-parameter logistic fit using GraphPad Prism (version 8; La Jolla, CA).

Compound	IC50 [nM]
O=S1(=O)CC2(CC(Nc3nccc(-c4sc(N5C6CCC5CN(CC(F)(F)F)C6)nc4-c4cccc(NS(=O)(=O)N5Cc6cccc(C(F)(F)F)c6C5)c4F)n3)C2)C1 [Example 40, N-(3-(5-(2-((2,2-dioxido-2-thiaspiro-[3.3]-heptan-6-yl)amino)pyrimidin-4-yl)-2-(3-(2,2,2-trifluoroethyl)-3,8-diazabicyclo[3.2.1]-octan-8-yl)thiazol-4-yl)-2-fluorophenyl)-4-(trifluoromethyl)-isoindoline-2-sulfonamide]	192
O=S1(=O)CC2(CC(Nc3nccc(-c4sc(C56CC(C5)C6)nc4-c4cccc(NS(=O)(=O)N5CCc6c5cccc6C(F)(F)F)c4F)n3)C2)C1 [Example 42, N-(3-(2-(bicyclo [1.1.1]pentan-1-yl)-5-(2-((2,2-dioxido-2-thiaspiro[3.3]heptan-6-yl)amino)-pyrimidin-4-yl)thiazol-4-yl)-2-fluorophenyl)-4-(trifluoromethyl)-indoline-1-sulfonamide]	278
CN1CC2CCC(C1)N2c1nc(-c2cccc(NS(=O)(=O)N3CCc4ccc(Cl)cc43)c2F)c(-c2ccnc(NC3CC4(C3)CS(=O)(=O)C4)n2)s1 [Example 43, 6-chloro-N-(3-(5-(2-((2,2-dioxido-2-thiaspiro[3.3]heptan-6-yl)amino)-pyrimidin-4-yl)-2-(3-methyl-3,8-diazabicyclo [3.2.1]octan-8-yl)thiazol-4-yl)-2-fluorophenyl) indoline-1-sulfonamide]	27.1
CN1CC2CCC(C1)N2c1nc(-c2cccc(NS(=O)(=O)N3CCc4ccc(C(F)(F)F)cc43)c2F)c(-c2ccnc(NC3CC4(C3)CS(=O)(=O)C4)n2)s1 [Example 44, N-(3-(5-(2-((2,2-dioxido-2-thiaspiro-[3.3]heptan-6-yl)amino)pyrimidin-4-yl)-2-(3-methyl-3,8-diazabicyclo[3.2.1]-octan-8-yl)thiazol-4-yl)-2-fluorophenyl)-6-(trifluoromethyl) indoline-1-sulfonamide]	56
O=S1(=O)CC2(CC(Nc3nccc(-c4sc(C56CC(C5)C6)nc4-c4cccc(NS(=O)(=O)N5CCc6c5ccc(F)c6F)c4F)n3)C2)C1 [Example 45, N-(3-(2-(bicyclo [1.1.1]pentan-1-yl)-5-(2-((2,2-dioxido-2-thiaspiro[3.3]heptan-6-yl)amino)-pyrimidin-4-yl)thiazol-4-yl)-2-fluorophenyl)-4,5-difluoroindoline-1-sulfonamide]	314
O=S1(=O)CC2(CC(Nc3nccc(-c4sc(C56CC(C5)C6)nc4-c4cccc(NS(=O)(=O)N5CCc6ccccc6C5)c4F)n3)C2)C1 [Example 46, N-(3-(2-(bicyclo [1.1.1]pentan-1-yl)-5-(2-((2,2-dioxido-2-thiaspiro[3.3]heptan-6-yl)amino)-pyrimidin-4-yl)thiazol-4-yl)-2-fluorophenyl)-3,4-dihydroisoquinoline-2(1H)-sulfonamide]	476
O=S1(=O)CC2(CC(Nc3nccc(-c4sc(C56CC(C5)C6)nc4-c4cccc(NS(=O)(=O)N5CCc6cc(Cl)ccc65)c4F)n3)C2)C1 [Example 47, N-(3-(2-(bicyclo [1.1.1]pentan-1-yl)-5-(2-((2,2-dioxido-2-thiaspiro[3.3]heptan-6-yl)amino)-pyrimidin-4-yl)thiazol-4-yl)-2-fluorophenyl)-5-chloroindoline-1-sulfonamide]	343
O=S1(=O)CC2(CC(Nc3nccc(-c4sc(C56CC(C5)C6)nc4-c4cccc(NS(=O)(=O)N5CCc6ccc(OC(F)F)cc65)c4F)n3)C2)C1 [Example 48, N-(3-(2-(bicyclo [1.1.1]pentan-1-yl)-5-(2-((2,2-dioxido-2-thiaspiro[3.3]heptan-6-yl)amino)-pyrimidin-4-yl)thiazol-4-yl)-2-fluorophenyl)-6-(difluoromethoxy)-indoline-1-sulfonamide]	139
O=S1(=O)CC2(CC(Nc3nccc(-c4sc(N5C6CCC5CN(CC(F)(F)F)C6)nc4-c4cccc(NS(=O)(=O)N5Cc6cccc(C(F)F)c6C5)c4F)n3)C2)C1 [Example 49]	137
